Data from patent US5223526A, “Pyrazole carboxanilide fungicides and use” (Monsanto Company, priority 1992, dated 1993).

Legend:
[1] = system: Botrytis cinerea; assay: Vine grey mold (grape berries); type: in vivo; conditions: average of six berries, 7-10 days; for pest or weed control at 50 ppm: grape berries treated with 50 ppm, read-out: % DISEASE CONTROL 50 ppm; for pest or weed control at 200 ppm: grape berries treated with 200 ppm, read-out: % DISEASE CONTROL 200 ppm
Method: Grape berries, which have been washed and surfaced sterilized in 70% ethanol for one minute, are, except for the negative controls, treated with 0.2 mL of a 2:3 acetone/water formulation (containing 0.05% Tween® 20) of 200 or 50 ppm of the test compounds and placed one per well in 12-well plates. Six berries per treatment level are used. Twenty-four hours later each berry is inoculated with Botrytis cinerea conidia, 0.2 mL of 10^6 spores/mL suspension. The plates are incubated at 20° C. with a 12 hours photoperiod for 7-10 days and the percent surface area infected with the disease is determined for each replicate using the values of 0, 1, 2, 5, 7, 10, 15, 20, 25, 30, 35, 40, 45, 50, 55, 60, 65, 70, 75, 80, 85, 90, 95, and 100%. Treatment means are calculated and percent disease control is determined by the formula [(control mean - treatment mean)/control means]×100.
Some of the compounds have been tested more than once and the results shown are the average of the number of tests reported.

[2] = system: Rhizoctonia solani; assay: Rice sheath blight; type: in vivo; design: scale not given here; conditions: inoculated two days later, rated after 7 days, average of five plants; for Disease Control Rating at 0.5 mg/mL: foliage and soil sprayed with 0.5 mg/mL; for Disease Control Rating at 0.02 mg/mL: foliage and soil sprayed with 0.02 mg/mL; for Disease Control Rating at 0.1 mg/mL: foliage and soil sprayed with 0.1 mg/mL
Method: Rice plants, 11 to 15 days old, are grown in 7.65 cm^2 pots. Each plant in the treatment groups is treated by spraying both the foliage and the soil surface, each with 2 mL of a water/acetone/Tween®20 formulation containing 0.5, 0.1, or 0.02 mg/mL of Compound A. The pots are placed in flood trays which are filled with water to just below the soil line. Two days later, approximately two grams of Rhizoctonia solani inoculum, cultured on rice grain for four to eight weeks, is applied to the base of the rice plants in each pot. After 7 days in a 25° C. high humidity growth chamber, each plant is evaluated for the level of disease contro as compared to untreated controls by the following scale and the average of five plants per treatment level is calculated.

[3] = biological target: T1, succinate dehydrogenase (Botrytis cinerea, UniProt A0A384J5E4+A0A384J8V8+A0A384JHJ5); assay: Enzyme inhibition: succinate dehydrogenase activity in Botrytis cinerea mitochondria (DCPIP reduction); type: biochemical; conditions: concentration required to inhibit the rate of DCPIP reduction by 50%; Botrytis cinerea isolate Nick mitochondria; read-out: I50 (μM conc.)
T1 construct: succinate-DCPIP reductase assay with KCN
Method: Mitochondria were isolated by a method adapted from G.A. White [Biochem. Biophys. Res. Commun. 44: 1212, 1971]. Twenty to thirty grams of Botrytis cinerea isolate Nick were resuspended in 250 mL 0.25M sucrose, 5mM Na4 EDTA, pH 7.0 (+) 0.15% (w/v) bovine serum albumin (BSA) and placed in a Bead Beater chamber (Biospec Products, Bartlesville, Ok.). Zirconium oxide beads (0.5mm) were added to finish filling the chamber. Four 30 second beats separated by 2 minute temperature equilibration periods in the cold were used to break the mycelia. A crude mitochondrial preparation was harvested from the homogenate by differential centrifugation at 4° C. and resuspended in BSA-free sucrose/EDTA media and used for SDH assays.
The succinate dehydrogenase activity was measured at 600 nm in 50 mM potassium phosphate, pH 7.2, 1 mM KCN, 45 μM 2,6-dichlorophenolindophenol (DCPIP) and 17 mM disodium succinate (final volume, 1 mL) with a Perkin-Elmer Lambda 7 ultraviolet-visible spectrophotometer. The test compounds were added as acetone solutions (final concentration of acetone, 1% (v/v)). The mitochondrial preparatons were used to initiate the reaction. All rates were corrected for endogenous activities minus succinate. Semilog plots of percentage inhibition versus test compound concentration were used to determine inhibition expressed as I50 (μM) which is the concentration required to inhibit the rate of DCPIP reduction by 50%. The commercial fungicide carboxin was used as standard throughout.

[4] = system: Botrytis cinerea; assay: Eggplant grey mold; type: in vivo; design: scale not given here; conditions: inoculated 24 h later, rated after 3-4 days; for Disease Control Rating at 500 ppm: eggplant sprayed with 500 ppm; for Disease Control Rating at 20 ppm: eggplant sprayed with 20 ppm; for Disease Control Rating at 100 ppm: eggplant sprayed with 100 ppm
Method: Eggplant seed are planted in 2.25" square pots, six per pot, and maintained in growth chambers set at 23° C., 80% humidity, and 12 h photoperiod. When the plants are at the cotyledon stage (14-18 days afterplanting), the plants are sprayed with 1.5 mL/pot of 500, 100 or 20 ppm 2:3 acetone:water (with 0.5% Tween® 20) formulations of the test compounds.
Twenty-four hours later the plants are inoculated with Botrytis cinerea, approximately 0.5 mL/pot of a 4×10^6 spore/mL suspension. The plantes are incubated at 23° C. and 100% humidity for 3-4 days, at which time disease control ratings are made based on presence and severity of Botrytis lesions.

T1 sequence (A0A384J5E4 1-300): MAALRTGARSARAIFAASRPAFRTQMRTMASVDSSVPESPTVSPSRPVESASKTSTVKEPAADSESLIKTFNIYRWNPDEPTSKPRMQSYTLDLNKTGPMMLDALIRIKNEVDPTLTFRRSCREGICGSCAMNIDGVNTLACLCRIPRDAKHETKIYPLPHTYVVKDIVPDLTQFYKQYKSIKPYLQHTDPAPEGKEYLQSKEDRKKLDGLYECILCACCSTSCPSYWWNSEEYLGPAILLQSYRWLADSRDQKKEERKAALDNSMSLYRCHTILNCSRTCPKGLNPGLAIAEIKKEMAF
T1 sequence (A0A384J8V8 1-189): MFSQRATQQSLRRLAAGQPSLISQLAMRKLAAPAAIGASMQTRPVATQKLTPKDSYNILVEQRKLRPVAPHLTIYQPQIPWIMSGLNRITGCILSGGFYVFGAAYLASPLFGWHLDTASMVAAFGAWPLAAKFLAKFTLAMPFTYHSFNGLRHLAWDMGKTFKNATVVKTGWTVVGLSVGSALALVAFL
T1 sequence (A0A384JHJ5 1-192): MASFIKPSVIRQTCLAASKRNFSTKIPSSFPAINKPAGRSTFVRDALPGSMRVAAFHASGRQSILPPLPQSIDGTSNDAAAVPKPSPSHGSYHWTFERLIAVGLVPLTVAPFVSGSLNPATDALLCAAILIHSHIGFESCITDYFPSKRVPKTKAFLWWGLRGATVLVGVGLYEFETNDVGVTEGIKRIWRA
T1 sequence (A0A384K456 1-647 partner): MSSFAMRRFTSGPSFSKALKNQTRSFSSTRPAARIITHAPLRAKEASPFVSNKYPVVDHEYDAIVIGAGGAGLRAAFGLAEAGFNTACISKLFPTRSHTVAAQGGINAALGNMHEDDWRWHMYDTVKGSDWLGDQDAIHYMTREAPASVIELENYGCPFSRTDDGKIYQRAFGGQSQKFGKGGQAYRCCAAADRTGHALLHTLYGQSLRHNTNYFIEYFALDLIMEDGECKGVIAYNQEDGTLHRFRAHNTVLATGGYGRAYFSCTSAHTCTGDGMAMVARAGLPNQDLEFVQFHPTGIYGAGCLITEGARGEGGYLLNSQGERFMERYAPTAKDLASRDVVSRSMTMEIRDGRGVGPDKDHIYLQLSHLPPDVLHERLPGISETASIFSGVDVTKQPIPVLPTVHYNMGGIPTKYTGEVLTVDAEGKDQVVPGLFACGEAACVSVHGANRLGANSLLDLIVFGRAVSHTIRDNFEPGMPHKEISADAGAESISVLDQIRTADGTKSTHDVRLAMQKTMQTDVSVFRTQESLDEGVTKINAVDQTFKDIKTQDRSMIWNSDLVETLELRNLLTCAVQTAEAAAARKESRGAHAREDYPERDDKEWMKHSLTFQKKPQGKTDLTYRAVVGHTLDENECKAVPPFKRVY

Structure (SMILES) | pest or weed control at 50 ppm [1] | pest or weed control at 200 ppm [1] | Disease Control Rating at 0.5 mg/mL [2] | IC50 [3] | Disease Control Rating at 500 ppm [4] | Disease Control Rating at 20 ppm [4] | Disease Control Rating at 100 ppm [4] | Disease Control Rating at 0.02 mg/mL [2] | Disease Control Rating at 0.1 mg/mL [2]
Cn1cc(C(=O)Nc2ccc(F)cc2C2(C)CCCCC2)c(C(F)(F)F)n1 [Example 98, 1H-pyrazole-4-carboxamide, N-[4-fluoro-2-(1-methylcyclohexyl)-phenyl]-1-methyl-3-(trifluoromethyl)-] | 14% | 0% | 0 | 0.8 µM | 0 | – | – | – | –
Cn1cc(C(=O)Nc2ccccc2C=C2CCCCC2)c(C(F)(F)F)n1 [Example 40, 1H-pyrazole-4-carboxamide, N-[2-(cyclohexylidenemethyl)phenyl]-1-methyl-3-(trifluoromethyl)-] | 2% | 3% | 0 | 0.079 µM | 1 | 0 | 0 | – | –
Cc1nn(C)c(Cl)c1C(=O)Nc1ccccc1[C@@H]1C[C@H]2CC[C@@H]1C2 (relative stereo) [Example 106, 1H-pyrazole-4-carboxamide, N-(2-bicyclo[2.2.1]hept-2-ylphenyl)-5-chloro-1,3-dimethyl-, exo-] | 9% | 3% | 3 | 0.094 µM | 0 | – | – | 2 | 3
Cn1cc(C(=O)Nc2ccccc2C=C2CCCCC2)c(C(F)F)n1 [Example 116, 1H-pyrazole-4-carboxamide, N-[2-(cyclohexylidenemethyl)phenyl]-3-(difluoromethyl)-1-methyl-] | 21% | 68% | 3 | 0.048 µM | 1 | 0 | 0 | 1 | 1
CCC1CCCC(C)=C1c1ccccc1NC(=O)c1cn(C)nc1C(F)(F)F (centres unmarked) [Example 138, 1H-pyrazole-4-carboxamide, N-[2-(6-ethyl-2-methyl-1-cyclohexen-1-yl)phenyl]-1-methyl-3-(trifluoromethyl)-] | 0% | 4% | 2 | 0.13 µM | 0 | 0 | 0 | – | –
Cn1cc(C(=O)Nc2ccccc2OC2CCCCC2)c(C(F)F)n1 [Example 22, 1H-pyrazole-4-carboxamide, N-[2-(cyclohexyloxy)phenyl]-3-(difluoromethyl)-1-methyl-] | 24% | 22% | 0 | 0.0071 µM | 0 | – | – | – | –
Cn1cc(C(=O)Nc2ccccc2C2CCCCC2)c(Cl)n1 [Example 50, 1H-pyrazole-4-carboxamide, 3-chloro-N-(2-cyclohexylphenyl)-1-methyl-] | 8% | 22% | 2 | 0.098 µM | 0 | – | – | 0 | 0
Cn1cc(C(=O)Nc2cc(Br)cc(Br)c2C2CCCCC2)c(C(F)(F)F)n1 [Example 136, 1H-pyrazole-4-carboxamide, N-(3,5-dibromo-2-cyclohexylphenyl)-1-methyl-3-(trifluoromethyl)-] | 7% | 0% | 0 | – | 1 | 0 | 0 | – | –
